For assay [1], the target named is T1, proteasome in Molt-4 cells (human leukemia) (Homo sapiens, UniProt P20618+P28074).
T1 sequence (P28074 60-263): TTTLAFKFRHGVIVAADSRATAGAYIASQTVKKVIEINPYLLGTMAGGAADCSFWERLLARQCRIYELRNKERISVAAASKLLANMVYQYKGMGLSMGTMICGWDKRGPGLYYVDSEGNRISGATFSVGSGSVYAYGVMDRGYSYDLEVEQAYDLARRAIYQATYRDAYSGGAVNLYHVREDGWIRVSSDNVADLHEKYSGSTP
T1 sequence (P20618 29-241): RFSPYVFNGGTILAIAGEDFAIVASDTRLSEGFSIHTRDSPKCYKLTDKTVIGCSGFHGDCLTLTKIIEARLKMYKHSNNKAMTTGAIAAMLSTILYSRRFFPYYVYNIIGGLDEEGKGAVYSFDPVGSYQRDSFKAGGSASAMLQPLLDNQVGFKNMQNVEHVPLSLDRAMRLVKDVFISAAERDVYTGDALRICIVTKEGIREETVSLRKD
Type of assay: cell-based. As to conditions: assay of Example E, inhibition of MOLT4; read-out: MOLT4 (EC50). In short, it runs like this:
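Intact Molt-4 cells (6×10^6 cells/mL) in HEPES-buffered saline were preincubated with inhibitor 15 min at 37 °C, then given cell-permeable MeOSuc-FLF-AFC at 25 μM final.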

The target of assay [2] is T2, 20S Human Erythrocyte Proteasome (HEP) (Homo sapiens, UniProt P20618+P28074).
T2 construct: 20S Human Erythrocyte Proteasome (HEP), purchased from Immatics Biotechnologies Inc; purchased Immatics Biotechnologies Inc., Tübingen, Germany; host or cells: human erythrocytes (natural source)
The assay is described as follows: Chymotrypsin-like activity of 20S Human Erythrocyte Proteasome (HEP), IC50 determination. Type of assay: biochemical. The following applies: assay of Example C, inhibition of HEP. In short, it runs like this: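 20S proteasome at 0.2 μg/mL (about 0.6 nM catalytic sites) in 20 mM Tris with 0.04% SDS, preincubated 15 min at 37° C with inhibitor before Suc-LLVY-AMC (100 μM final). AMC fluorescence read in the linear range; triplicates, IC50 from concentration series.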

Data on 19 molecules can be found in patent publication US8546608B2, “Proteasome inhibitors and methods of using the same” (Cephalon, Inc., priority 2003, dated 2013).

Molecules are shown by their SMILES.

On to `CC(C)C[C@H](NC(=O)[C@H](CCCNC(=N)N[N+](=O)[O-])NC(=O)/C=C/c1ccc2ccccc2c1)B(O)O` [D.7.36, Boronic acid, [(1R)-1-[[(2S)-5-[[imino(nitroamino)methyl]amino]-2-[[(E)-3-(naphthalen-2-yl)prop-2-enoyl]amino]-1-oxopentyl]amino]-3-methylbutyl]], for which the EC50 in assay [1] fell in the range of 2000 to 10000 nM. The IC50 in assay [2] is less than 10 nM.

As to `Cc1cc(C(=O)N[C@@H](CCCNC(=N)N[N+](=O)[O-])C(=O)N[C@@H](CC(C)C)B(O)O)ccc1F` [D.7.37], in assay [1], the EC50 is greater than 10000 nM. Further, the IC50 in assay [2] is less than 10 nM.

Consider `CC(C)C[C@H](NC(=O)[C@H](CCCNC(=N)N[N+](=O)[O-])NC(=O)CCCNC(=O)OCC1c2ccccc2-c2ccccc21)B(O)O` [D.7.38, Boronic acid, [(1R)-1-[[(2S)-5-[[imino(nitroamino)methyl]amino]-2-[[[[[(9H-fluoren-9-yl)methoxy]carbonyl]amino]butanoyl]amino]-1-oxopentyl]amino]-3-methylbutyl]], for which the EC50 in assay [1] lay in the range of 200 to 2000 nM. This molecule also yielded an IC50 in assay [2] of less than 10 nM.

`CC(C)C[C@H](NC(=O)[C@H](CCCNC(=N)N[N+](=O)[O-])NC(=O)c1ccc(Br)cc1)B(O)O` [D.7.39, Boronic acid, [(1R)-1-[[(2S)-5-[[imino(nitroamino)methyl]amino]-2-[(4-bromobenzoyl)amino]-1-oxopentyl]amino]-3-methylbutyl]]: in assay [1], the EC50 lay within 2000 to 10000 nM. Besides, the half-maximal inhibitory concentration (IC50) in assay [2] is less than 10 nM.

Take `CCCCCCCCCCC(=O)N[C@@H](CCCNC(=N)N[N+](=O)[O-])C(=O)N[C@@H](CC(C)C)B(O)O` [D.7.41, Boronic acid, [(1R)-1-[[(2S)-5-[[imino(nitroamino)methyl]amino]-2-[(undecanoyl)amino]-1-oxopentyl]amino]-3-methylbutyl]]: the EC50 in assay [1] is less than 200 nM. For the same molecule, the IC50 in assay [2] is less than 10 nM.

Regarding `CC(C)C[C@H](NC(=O)[C@H](CCCNC(=N)N[N+](=O)[O-])NC(=O)CCCCCCCCCCC#N)B(O)O` [D.7.60, Boronic acid, [(1R)-1-[[(2S)-5-[[imino(nitroamino)methyl]amino]-2-[(11-cianoundecanoyl)amino]-1-oxopentyl]amino]-3-methylbutyl]], the EC50 in assay [1] fell in the range of 2000 to 10000 nM. This molecule gave an IC50 in assay [2] of less than 10 nM.

As to `CC(C)C[C@H](NC(=O)[C@H](CCCNC(=N)N[N+](=O)[O-])NC(=O)CCCCCCCCC#N)B(O)O` [D.7.61, Boronic acid, [(1R)-1-[[(2S)-5-[[imino(nitroamino)methyl]amino]-2-[(9-cyanononanoyl)amino]-1-oxopentyl]amino]-3-methylbutyl]], the EC50 in assay [1] was greater than 10000 nM. In addition, the IC50 in assay [2] was less than 10 nM.

For `CCCCCCCCCC(=O)N[C@H](C(=O)N[C@@H](CC(C)C)B1O[C@@H]2C[C@@H]3C[C@@H](C3(C)C)[C@]2(C)O1)[C@@H](C)O` [D.8, Decanamide, N-[(1S,2R)-1-[[[(1R)-1-[(3aS,4S,6S,7aR)-hexahydro-3a,5,5-trimethyl-4,6-methano-1,3,2-benzodioxaborol-2-yl]-3-methylbutyl]amino]carbonyl]-2-hydroxypropyl]-], the EC50 in assay [1] was less than 200 nM. This molecule came in with an IC50 in assay [2] of less than 10 nM.

As for `CC(C)C[C@H](NC(=O)[C@@H](NC(=O)c1cnccn1)[C@@H](C)O)B1O[C@@H]2C[C@@H]3C[C@@H](C3(C)C)[C@]2(C)O1` [D.8.4, 2-Pyrazinecarbossamide, N-[(1S,2R)-1-[[[(1R)-1-[(3aS,4S, 6S,7aR)-hexahydro-3a,5,5-trimethyl-4,6-methano-1,3,2-benzodioxaborol-2-yl]-3-melthylbutyl]amino]carbonyl]-2-hydroxypropyl]], the EC50 in assay [1] was less than 200 nM. Moreover, the IC50 in assay [2] was less than 100 nM.

As for `CCCCCCCCCCCCC(=O)N[C@H](C(=O)N[C@@H](CC(C)C)B1O[C@@H]2C[C@@H]3C[C@@H](C3(C)C)[C@]2(C)O1)[C@@H](C)O` [D.8.5, Tridecanamide, N-[(1S,2R)-1-[[[(1R)-1-[(3aS,4S,6S,7aR)-hexahydro-3a,5,5-trimethyl-4,6-methano-1,3,2-benzodioxaborol-2-yl]-3-methylbutyl]amino]carbonyl]-2-hydroxypropyl]], the EC50 in assay [1] was less than 200 nM. The IC50 in assay [2] is less than 10 nM.

Turning to `CC(C)C[C@H](NC(=O)[C@@H](NC(=O)c1ccc(-c2ccccc2)cc1)[C@@H](C)O)B1O[C@@H]2C[C@@H]3C[C@@H](C3(C)C)[C@]2(C)O1` [D.8.6, 4-Phenylbenzamide, N-[(1S,2R)-1-[[[(1R)-1-[(3aS,4S,6S,7aR)-hexahydro-3a,5,5-trimethyl-4,6-methano-1,3,2-benzodioxaborol-2-yl]-3-methylbutyl]amino]carbonyl]-2-hydroxypropyl]], the EC50 in assay [1] is less than 200 nM. The IC50 in assay [2] was less than 10 nM.

In the case of `CC(C)C[C@H](NC(=O)[C@H](CC(N)=O)NC(=O)c1cnccn1)B1O[C@@H]2C[C@@H]3C[C@@H](C3(C)C)[C@]2(C)O1` [D.8.18, 2-Pyrazinecarboxamide, N-[(1S)-1-[[[(1R)-1-[(3aS,4S,6S,7aR)-hexahydro-3a,5,5-trimethyl-4,6-methano-1,3,2-benzodioxaborol-2-yl]-3-methylbutyl]amino]carbonyl]-2-carbamoylethyl]], the EC50 in assay [1] was 200 to 2000 nM. The same molecule yielded an IC50 in assay [2] of less than 100 nM.

Take `CCCCCCCCCC(=O)N[C@@H](CC(N)=O)C(=O)N[C@@H](CC(C)C)B1O[C@@H]2C[C@@H]3C[C@@H](C3(C)C)[C@]2(C)O1` [D.8.19, Decanamide, N-[(1S)-1-[[[(1R)-1-[(3aS,4S,6S,7aR)-hexahydro-3a,5,5-trimethyl-4,6-methano-1,3,2-benzodioxaborol-2-yl]-3-methylbutyl]amino]carbonyl]-2-carbamoylethyl]]: the EC50 in assay [1] is less than 200 nM. The same molecule displayed an IC50 in assay [2] of less than 10 nM.

As for `CCCCc1ccc(C(=O)N[C@@H](CC(N)=O)C(=O)N[C@@H](CC(C)C)B2O[C@@H]3C[C@@H]4C[C@@H](C4(C)C)[C@]3(C)O2)cc1` [D.8.20, 4-Butylbenzamide, N-[(1S)-1-[[[(1R)-1-[(3aS,4S,6S,7aR)-hexahydro-3a,5,5-trimethyl-4,6-methano-1,3,2-benzodioxaborol-2-yl]-3-methylbutyl]amino]carbonyl]-2-carbamoylethyl]], the EC50 in assay [1] is less than 200 nM. The same molecule gave an IC50 in assay [2] of less than 10 nM.

Take `CCCCCCCCCC(=O)N[C@@H](CNC(=O)c1ccc(C)cc1)C(=O)N[C@@H](CC(C)C)B1O[C@@H]2C[C@@H]3C[C@@H](C3(C)C)[C@]2(C)O1` [D.9, Decanamide, N-[(1S)-1-[[[(1R)-1-[(3aS,4S,6S,7aR)-hexahydro-3a,5,5-trimethyl-4,6-methano-1,3,2-benzodioxaborol-2-yl]-3-methylbutyl]amino]carbonyl]-2-[(4-methylbenzoyl)amino]ethyl]-]: in assay [1], the EC50 is less than 200 nM. The IC50 in assay [2] is less than 10 nM.

As to `CCCCCCCCCC(=O)N[C@@H](CNC(=O)Cc1ccc(OC)c(OC)c1)C(=O)N[C@@H](CC(C)C)B1O[C@@H]2C[C@@H]3C[C@@H](C3(C)C)[C@]2(C)O1` [D.12, 2-S-Decanoylamino-3-(3,4-dimethoxyphenylacetamido)propionamide, N-[(1S)-1-[[(1R)-1-[(3aS,4S,6S,7aR)-hexahydro-3a,5,5-trimethyl-4,6-methano-1,3,2-benzodioxaborol-2-yl]-3-methylbutyl]amino]carbonyl]], the EC50 in assay [1] is less than 200 nM. The molecule also registered an IC50 in assay [2] of less than 10 nM.

In the case of `CCCCc1ccc(C(=O)N[C@@H](CNC(=O)c2cnccn2)C(=O)N[C@@H](CC(C)C)B2O[C@@H]3C[C@@H]4C[C@@H](C4(C)C)[C@]3(C)O2)cc1` [D.18, 2-S-(4-Butylbenzoylamino)-3-(2-pyrazinocarbonylamino)-N-[(1S)-1-[[(1R)-1-[(3aS,4S,6S,7aR)-hexahydro-3a,5,5-trimethyl-4,6-methano-1,3,2-benzodioxaborol-2-yl]-3-methylbutyl]amino]carbonyl]], the EC50 in assay [1] was less than 200 nM. This molecule gave an IC50 in assay [2] of less than 10 nM.

As to `CCCCc1ccc(C(=O)N[C@@H](CNS(=O)(=O)c2ccc(F)cc2)C(=O)N[C@@H](CC(C)C)B2O[C@@H]3C[C@@H]4C[C@@H](C4(C)C)[C@]3(C)O2)cc1` [D.19, 4-Butylbenzamide, N-[(1S)-1-[[[(1R)-1-[(3aS,4S,6S,7aR)-hexahydro-3a,5,5-trimethyl-4,6-methano-1,3,2-benzodioxaborol-2-yl]-3-methylbutyl]amino]carbonyl]-2-[4-fluoro-benzenesulfonammide]ethyl]-], in assay [1], the EC50 was less than 200 nM. Further, in assay [2], the half-maximal inhibitory concentration (IC50) was less than 10 nM.

Turning to `CCCCc1ccc(C(=O)N[C@@H](CNC(=O)c2cccs2)C(=O)N[C@@H](CC(C)C)B2O[C@@H]3C[C@@H]4C[C@@H](C4(C)C)[C@]3(C)O2)cc1` [D.24.8, 4-butylbenzamide, N-[(1S)-1-[[[(1R)-1-[(3aS,4S,6S,7aR)-hexahydro-3a,5,5-trimethyl-4,6-methano-1,3,2-benzodioxaborol-2-yl]-3-methylbulyl]amino]carbonyl]-2-[(thien-2-ylcarbonyl)amino]ethyl]-], the EC50 in assay [1] was less than 200 nM. Moreover, in assay [2], the IC50 is less than 10 nM.
